# Target: human LPA1 (Homo sapiens, UniProt Q92633)
# Assay: In vitro functional assay of lysophosphatidic acid receptor 1 activity (calcium flux)
# Assay type: cell-based
# Settings: B103 cells stably expressing human LPA1; Fluo-4 NW calcium flux after lysophosphatidic acid (18:1) at EC80; compounds 100 pM to 10 μM; read-out: LPA1 IC50
# Procedure: In vitro functional assay of lysophosphatidic acid receptor 1 activity
# Primary compound plates were prepared in 100% DMSO (Sigma-Aldrich), secondary compound plates were prepared at 10× concentration in DiVEM (Invitrogen), and tertiary compound plates were prepared at 3x concentration in assay buffer containing HBSS (no Ca^+2/Mg^+2, Invitrogen) and 0.1% BSA (Sigma-Aldrich). Fluo-4 NW calcium assay dye (Invitrogen) was prepared as per manufacturer's recommendations in assay buffer. B103 cells stably expressing human LPA1(J. Chun lab, UCSD) were grown to confluency in DMEM media (Invitrogen) containing 10% FBS (ATCC), […] (Sigma-Aldrich) and […] Geneticin (Sigma-Aldrich), and detached with Accutase (Sigma-Aldrich) prior to assay. The freshly detached cells were resuspended in growth media and plated in black, clear-bottom 96-well plates (Costar) containing compound (i.e., secondary compound plate) at a density of 5×10^4 cells/well. Once plated, cells were left at room temperature for 30 minutes and then transferred to a 37° C., […] incubator for 24 hours. After 24 hours, the growth media was then removed and freshly prepared Fluo-4 NW calcium assay dye was added to cells. Compounds (i.e. tertiary compound plates) were then added back to the dye/cells, returned to the incubator for 30 minutes, and then kept at room temperature for an additional 30 minutes. Finally, lysophosphatidic acid (18:1) at the EC80 concentration was added and calcium flux measured using FlexStation 3 (Molecular Devices). Sigmoidal dose-response curves were generated by measuring […] over 45 sec and calculating the area under the curve. Dose response curves and IC50 values were generated using Prism (GraphPad). Compounds were tested at a final concentration range of 100 pM to 10 μM in 0.10% DMSO.
# Sequence of human LPA1 (Q92633 whole entry): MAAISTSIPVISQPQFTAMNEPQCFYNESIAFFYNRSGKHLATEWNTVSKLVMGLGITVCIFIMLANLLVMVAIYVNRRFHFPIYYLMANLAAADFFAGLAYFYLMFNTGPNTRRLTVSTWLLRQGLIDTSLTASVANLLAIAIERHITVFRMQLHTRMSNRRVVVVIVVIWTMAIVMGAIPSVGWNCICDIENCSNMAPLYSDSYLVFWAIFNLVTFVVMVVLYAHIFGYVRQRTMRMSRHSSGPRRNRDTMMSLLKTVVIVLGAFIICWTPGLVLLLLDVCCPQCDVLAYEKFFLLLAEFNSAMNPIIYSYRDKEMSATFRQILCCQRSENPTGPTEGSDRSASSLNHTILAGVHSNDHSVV
row,SMILES,IC50 [µM]
1,"CC(C)c1ccccc1C1(C(=O)Nc2ncc(Br)cc2OC(F)F)COC1 [Example 24, N-(5-bromo-3-(difluoromethoxy)pyridin-2-yl)-3-(2-isopropylphenyl)oxetane-3-carboxamide]",0.01 to 0.1
2,"Cc1ccc(NC(=O)C2(c3ccccc3C(C)C)CC(S(C)(=O)=O)C2)c(OC(F)F)n1 (stereo not shown) [Example 71, N-(2-(difluoromethoxy)-6-methylpyridin-3-yl)-1-(2-isopropylphenyl)-3-(methylsulfonyl)cyclobutane-1-carboxamide]",0.1 to 1
3,"Cc1cc(OC(F)F)c(NC(=O)C2(c3ccccc3C(C)C)COC2)cn1 [Example 26, N-(4-(difluoromethoxy)-6-methylpyridin-3-yl)-3-(2-isopropylphenyl)oxetane-3-carboxamide]",0.01 to 0.1
4,"COc1cc(C)ccc1NC(=O)C1(c2ccccc2C(C)C)CNC(=O)C1 (single isomer, unassigned) [Example 102-isomer A, 3-(2-isopropylphenyl)-N-(2-methoxy-4-methylphenyl)-5-oxopyrrolidine-3-carboxamide]",0.01 to 0.1
5,"COc1ccc(NC(=O)C2(c3ccccc3C(C)C)CCC(N=[N+]=[N-])CC2)c(OC(F)F)n1 (stereo not shown) [Example 84, 4-azido-N-(2-(difluoromethoxy)-6-methoxypyridin-3-yl)-1-(2-isopropylphenyl)cyclohexane-1I-carboxamide]",0.01 to 0.1
6,"COc1cc(Cl)ccc1NC(=O)C1(c2ccccc2C(C)C)COC1 [Example 21, N-(4-chloro-2-methoxyphenyl)-3-(2-isopropylphenyl)oxetane-3-carboxamide]",0.01 to 0.1
7,"Cc1ccc(NC(=O)C2(c3ccccc3C(C)C)CC(N(C)C)C2)c(OC(F)F)n1 (stereo not shown) [Example 39, N-(2-(difluoromethoxy)-6-methylpyridin-3-yl)-3-(dimethylamino)-1-(2-isopropylphenyl)cyclobutane-1-carboxamide]",0.1 to 1
8,"CC(C)c1ccccc1C1(C(=O)Nc2ccc(Cl)cn2)CC(O)(C(F)(F)C(=O)O)C1 (single isomer, unassigned) [Example 93-isomer A, 2-(3-((5-chloropyridin-2-yl)carbamoyl)-1-hydroxy-3-(2-isopropylphenyl)cyclobutyl)-2,2-difluoroacetic acid]",0.01 to 0.1
9,"C#CC1(O)CCC(C(=O)Nc2ccc(OC)nc2OC(F)F)(c2ccccc2C(C)C)CC1 (stereo not shown) [Example 82, N-(2-(difluoromethoxy)-6-methoxypyridin-3-yl)-4-ethynyl-4-hydroxy-1-(2-isopropylphenyl)cyclohexane-1-carboxamide]",< 0.01
10,"COc1ccc(NC(=O)C2(c3ccccc3C(C)C)CCC(C(N)=O)CC2)c(OC(F)F)n1 (mixture of isomers) [Example 96, N^1-(2-(difluoromethoxy)-6-methoxypyridin-3-yl)-1-(2-isopropylphenyl)cyclohexane-1,4-dicarboxamide]",0.1 to 1
11,"Cc1cc(OC(F)F)c(NC(=O)C2(c3ccccc3C(C)C)CC(=O)N(C)C2)cn1 (stereo not shown) [Example 6, N-(4-(difluoromethoxy)-6-methylpyridin-3-yl)-3-(2-isopropylphenyl)-1-methyl-5-oxopyrrolidine-3-carboxamide]",0.1 to 1
12,"Cc1ccc(NC(=O)C2(c3ccccc3C(C)C)CC(S(N)(=O)=O)C2)c(OC(F)F)n1 (mixture of isomers) [Example 69, N-(2-(difluoromethoxy)-6-methylpyridin-3-yl)-1-(2-isopropylphenyl)-3-sulfamoylcyclobutane-1-carboxamide]",0.01 to 0.1
13,"CNS(=O)(=O)C1CCC(C(=O)Nc2ccc(OC)nc2OC(F)F)(c2ccccc2C(C)C)CC1 (stereo not shown) [Example 99, N-(2-(difluoromethoxy)-6-methoxypyridin-3-yl)-1-(2-isopropylphenyl)-4-(N-methylsulfamoyl)cyclohexane-1-carboxamide]",0.1 to 1
14,"COc1cnc(NC(=O)C2(c3ccccc3C(C)C)COC2)c(OC(F)F)c1 [Example 35, N-(3-(difluoromethoxy)-5-methoxypyridin-2-yl)-3-(2-isopropylphenyl)oxetane-3-carboxamide]",0.1 to 1
15,"CC(C)c1ccccc1C1(C(=O)Nc2ncc(Cl)cc2OC(F)F)COC1 [Example 22, N-(5-chloro-3-(difluoromethoxy)pyridin-2-yl)-3-(2-isopropylphenyl)oxetane-3-carboxamide]",0.01 to 0.1
16,"CC(C)c1ccccc1C1(C(=O)Nc2ncc(Cl)cc2OC(F)F)CC(O)(C(F)(F)C(=O)O)C1 (single isomer, unassigned) [Example 55-isomer B, 2-(3-((5-chloro-3-(difluoromethoxy)pyridin-2-yl)carbamoyl)-1-hydroxy-3-(2-isopropylphenyl)cyclobutyl)-2,2-difluoroacetic acid]",0.01 to 0.1

row,SMILES,IC50 [µM]
1,"COc1nc(Cl)ccc1NC(=O)C1(c2ccccc2C(C)C)COC1 [Example 28, N-(6-chloro-2-methoxypyridin-3-yl)-3-(2-isopropylphenyl)oxetane-3-carboxamide]",> 1
2,"Cc1ccc(NC(=O)C2(c3ccccc3C(C)C)CC(N3CCC3=O)C2)c(OC(F)F)n1 (mixture of isomers) [Example 68, N-(2-(difluoromethoxy)-6-methylpyridin-3-yl)-1-(2-isopropylphenyl)-3-(2-oxoazetidin-1-yl)cyclobutane-1-carboxamide]",0.01 to 0.1
3,"CC(C)Oc1cc(Cl)ncc1NC(=O)C1(c2ccccc2C(C)C)COC1 [Example 33, N-(6-chloro-4-isopropoxypyridin-3-yl)-3-(2-isopropylphenyl)oxetane-3-carboxamide]",0.01 to 0.1
4,"COc1cc(Br)cnc1NC(=O)C1(c2ccccc2C(C)C)COC1 [Example 23, N-(5-bromo-3-methoxypyridin-2-yl)-3-(2-isopropylphenyl)oxetane-3-carboxamide]",0.1 to 1
5,"Cc1ccc(NC(=O)C2(c3ccccc3C(C)C)CC(Cn3ccnn3)C2)c(OC(F)F)n1 (stereo not shown) [Example 72, 3-((1H-1,2,3-triazol-1-yl)methyl)-N-(2-(difluoromethoxy)-6-methylpyridin-3-yl)-1-(2-isopropylphenyl)cyclobutane-1-carboxamide]",0.01 to 0.1
6,"CC(=O)N(C)C1CC(C(=O)Nc2ccc(C)nc2OC(F)F)(c2ccccc2C(C)C)C1 (mixture of isomers) [Example 43, N-(2-(difluoromethoxy)-6-methylpyridin-3-yl)-1-(2-isopropylphenyl)-3-(N-methylacetamido)cyclobutane-1-carboxamide]",0.01 to 0.1
7,"COc1ccc(NC(=O)C2(c3ccccc3C(C)C)CCC3(CC2)OCCO3)c(OC(F)F)n1 [Example 79, N-(2-(difluoromethoxy)-6-methoxypyridin-3-yl)-8-(2-isopropylphenyl)-1,4-dioxaspiro[4.5]decane-8-carboxamide]",0.1 to 1
8,"COC[C@H](C)Oc1cc(Cl)ncc1NC(=O)C1(c2ccccc2C(C)C)COC1 [Example 34, (S)-N-(6-chloro-4-((1-methoxypropan-2-yl)oxy)pyridin-3-yl)-3-(2-isopropylphenyl)oxetane-3-carboxamide]",0.01 to 0.1
9,"CC(=O)N1CC2(C1)CC(C(=O)Nc1ccc(C)nc1OC(F)F)(c1ccccc1C(C)C)C2 [Example 74, 2-acetyl-N-(2-(difluoromethoxy)-6-methylpyridin-3-yl)-6-(2-isopropylphenyl)-2-azaspiro[3.3]heptane-6-carboxamide]",> 1
10,"Cc1ccc(NC(=O)C2(c3ccccc3C(C)C)CC(C(=O)N(C)C)C2)c(OC(F)F)n1 (stereo not shown) [Example 66, N^1-(2-(difluoromethoxy)-6-methylpyridin-3-yl)-1-(2-isopropylphenyl)-N^3,N^3-dimethylcyclobutane-1,3-dicarboxamide]",0.1 to 1
11,"Cc1ccc(NC(=O)C2(c3ncccc3C(C)C)CC(CC(=O)O)C2)c(OC(F)F)n1 (stereo not shown) [Example 48, 2-(3-((2-(difluoromethoxy)-6-methylpyridin-3-y1)carbamoyl)-3-(3-isopropylpyridin-2-yl)cyclobutyl)acetic acid]",0.01 to 0.1
12,"Cc1ccc(NC(=O)C2(c3ccccc3C(C)C)CC(CC(=O)O)C2)c(OC(F)F)n1 (mixture of isomers) [Example 45, 2-(3-((2-(difluoromethoxy)-6-methylpyridin-3-yl)carbamoyl)-3-(2-isopropylphenyl)cyclobutyl)acetic acid]",< 0.01
13,"CC(C)c1ccccc1C1(C(=O)Nc2ccc(Cl)cc2OC(F)F)CCOCC1 [Example 14, N-(4-chloro-2-(difluoromethoxy)phenyl)-4-(2-isopropylphenyl)tetrahydro-2H-pyran-4-carboxamide]",0.1 to 1
14,"CC(C)c1ccccc1C1(C(=O)Nc2ccc(OC(F)F)nc2Cl)CNC(=O)C1 (stereo not shown) [Example 107, N-(2-chloro-6-(difluoromethoxy)pyridin-3-yl)-3-(2-isopropylphenyl)-5-oxopyrrolidine-3-carboxamide]",> 1
15,"COc1ccc(NC(=O)C2(c3ccccc3C(C)C)COC2)c(OC(C)C)n1 [Example 30, N-(2-isopropoxy-6-methoxypyridin-3-yl)-3-(2-isopropylphenyl)oxetane-3-carboxamide]",0.01 to 0.1

# Reference: patent US20250179045A1, “LPAR1 ANTAGONISTS AND USES THEREOF” (Contineum Therapeutics, Inc., priority 2021, published 2025)
